# Assay results as given in US20200360331A1, “COMPOSITIONS COMPRISING 15-HEPE AND/OR 15-HETrE AND METHODS OF TREATING OR PREVENTING CARDIOMETABOLIC DISEASE, METABOLIC SYNDROME, AND/OR RELATED DISEASES” (Afimmune Limited, priority 2019, published 2020).
# Entries after “also recorded” stand apart in the source; their conditions may differ.
# Tests used:
# TIMP-1 = assay: UUO study: quantitative RT-PCR of kidney, TIMP-1; format: in vivo, C57BL/6 mice; conditions: UUO mice kidney
# Experimental: (§1) Quantitative RT-PCR: Total ribonucleic acid (RNA) was extracted from kidney samples using RNAiso (Takara Bio, Japan) according to the manufacturer's instructions. One μg of RNA was reverse-transcribed using a reaction mixture containing 4.4 micromolar (mM) of magnesium chloride (MgCl2) (F. Hoffmann-La Roche, Switzerland), 40 U RNase inhibitor (Toyobo, Japan), 0.5 mM dNTP (Promega, USA), 6.28 μM random hexamer (Promega), 5× first strand buffer (Promega), 10 mM dithiothreitol (Invitrogen, USA) and 200 U MMLV-RT (Invitrogen) in a final volume of 20 μL. The reaction was carried out for 1 hour at 37° C., followed by 5 minutes at 99° C. Real-time PCR was performed using real-time PCR DICE and TB Green™ Premix Ex Taq™ II (Takara Bio). To calculate the relative microRNA (mRNA) expression level, the expression of each gene (e.g., α-SMA, TIMP-1, TGF-β and Collagen Type 1) was normalized to that of reference gene 36B4 (gene symbol: Rplp0). Information regarding the PCR-primer sets and the plate layout are described in Tables 1 and 2.
# Alpha-SMA = assay: BDL study: quantitative RT-PCR of liver, Alpha-SMA; format: in vivo, C57BL/6J mice; conditions: BDL mice liver
# Experimental: as §1, with “from liver” for “from kidney”, “4.4 mM” for “4.4 micromolar (mM) of”, “relative mRNA” for “relative microRNA (mRNA)”, “gene (α-SMA,” for “gene (e.g., α-SMA,”, “Tables 8” for “Tables 1”, “and 9.” for “and 2.”
# [1] = system: TGF-β-stimulated intracellular signaling (SMAD2/3 phosphorylation); assay: TGF-β-stimulated SMAD2/3 phosphorylation in LX2 liver stellate cells; format: cell-based, human; conditions: 0 μM to 100 μM for 24 hours, then 30 min TGF-β stimulation, listed as 15-HEPE
# NAFLD patients = assay: Phase IIa NAFLD study: lipid profile; format: in vivo, human; conditions: for Triglycerides (median placebo-corrected % change from baseline): 2 g
# Excerpt: Exploratory analysis: The exploratory analysis included analysis of lipid and metabolic parameters including total cholesterol, triglycerides, very low-density lipoprotein cholesterol (VLDL-C), low density lipoprotein cholesterol (LDL-C), high density lipoprotein cholesterol (HDL-C), non-high-density lipoprotein cholesterol (non-HDL-C), remnant-like particle cholesterol (RLP-C), fasting glucose, insulin, free fatty acids and hemoglobin A1C (HbA1C). Additional exploratory analysis included high throughput lipidomics and proteomics.
# The study was planned to include 96 evaluable patients with 32 patients randomized per treatment group.
# Clinical Laboratory Safety Tests: Safety tests were performed for hematology, serum biochemistry, coagulation, lipid profile, and urinalysis: Blood and urine samples were taken as per the Study Flow Chart in Table 19 for routine hematology, serum biochemistry, coagulation and urinalysis tests, along with a Lipid Profile. All samples were analyzed in the central laboratory. All subjects were fasted for a minimum of 8 hours prior to blood sampling. If subjects had not fasted for a minimum of 8 hours, the duration of fasting time was recorded, and subjects encouraged to fast appropriately for the next clinical visit. • Hematology: Full blood count to include red cell count, hemoglobin, hematocrit, white cell count, differential white cell count, platelet count and reticulocyte count. • Serum biochemistry: Urea (blood urea nitrogen; BUN), creatinine, uric acid, total bilirubin, Indirect and Direct Bilirubin, sodium, bicarbonate potassium, phosphorus, calcium chloride, alkaline phosphatase (ALP), aspartate aminotransferase (AST), alanine aminotransferase (ALT), ALT/AST ratio, lactate dehydrogenase (LDH), creatine phosphokinase (CPK), albumin, total protein, cholesterol, triglycerides, glucose, C-reactive protein (CRP). • Coagulation: prothrombin time (PT), international normalized ratio (INR) and activated partial […]. • Lipid Profile: LDL, HDL, and VLDL-C. • Urinalysis: pH, protein, glucose, blood, ketones, leukocytes, leukocyte esterase, bilirubin, specific gravity, urobilinogen and nitrate. Reflex micro if blood, protein, leukocyte esterase or nitrate/nitrite are present.
# [2] = relative mRNA normalized to 36B4, 50 mg/kg PO QD Day 0-13
# [3] = relative mRNA normalized to 36B4, 500 mg/kg PO QD Day 0-13
smiles,measurement,setting,value
"CC/C=C\CC(O)/C=C/C=C\C/C=C\C/C=C\CCCC(=O)O (stereo not shown) [DS102, 15-hydroxy-eicosa-5Z,8Z,11Z,13E,17Z-pentaenoic acid]",TIMP-1 gene expression,TIMP-1; [2],138.30 ± 30.39
same,TIMP-1 gene expression,TIMP-1; [3],124.80 ± 28.60
same,α-SMA mRNA expression level compared with the Vehicle group,Alpha-SMA; 500 mg/kg,tended to decrease; also recorded: trend approaching significance
same,α-SMA mRNA expression level vs Vehicle group,Alpha-SMA; DS102 treatment groups,no significant differences
same,Alpha-SMA gene expression,Alpha-SMA; [2],3.21 ± 1.67
same,Alpha-SMA gene expression,"Alpha-SMA; relative mRNA normalized to 36B4, 250 mg/kg PO QD Day 0-13",2.66 ± 1.33
same,Alpha-SMA gene expression,Alpha-SMA; [3],1.42 ± 0.75
same,TGF-β-stimulated intracellular signaling (SMAD2/3 phosphorylation),[1],inhibits TGF-β-stimulated intracellular signaling; also recorded: inhibited TGF-β induced intracellular signaling (SMAD2/3)
same,Triglycerides (median placebo-corrected % change from baseline),"NAFLD patients; Week 16, Full Analysis Set",−40.2%
same,Triglycerides (median placebo-corrected % change from baseline),"NAFLD patients; Week 16, Subgroup: High Triglycerides (>200 mg/dL)",−20.4%
same,Triglycerides (median placebo-corrected % change from baseline),"NAFLD patients; Week 16, Subgroup: Triglycerides > Upper Limit Normal (>150 mg/dL)",−39.0%
same,triglyceride levels,"NAFLD patients; NAFLD patients, Week 16",lowered
same,"lipid profile (total cholesterol, VLDL-C, non-HDL-C, RLP cholesterol, triglyceride levels)","NAFLD patients; Week 16, safety analysis set (SAS)",significantly improved
